Results on eleven compounds are retold here after ChEMBL document CHEMBL1201862, “PubChem BioAssay data set” (2004).

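Exposure lasted 48 hours, with cells grown in 96-well plates and compounds tested at five concentrations. GI50 marks 50% less growth.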 Active and inactive are the calls of the source. No stated cut-off is given here; in the data, active = GI50 up to about 1.1 µM and inactive = higher.

Test systems include HT-29; HL-60; SNB-19; COLO 205; Malme-3M; HCC 2998; MDA-MB-231; NCI-H460; IGROV-1; TK-10; RXF 393; MCF7; SK-MEL-2; M14; SF-295; KM12; 786-0; BT-549; K562; SNB-75.
Assay in all cases: growth of human tumour cells (NCI), 48 h

As to `COc1cc2c(cc1OCCCOS(C)(=O)=O)N=C[C@@H]1CCCN1C2=O`, the GI50 with HT-29, in the assay on HL-60, with SNB-19, with COLO 205, in the assay on Malme-3M and in the assay with HCC 2998 was > 100 µM (inactive) throughout. In addition, the GI50 with MDA-MB-231, in the assay on NCI-H460, with IGROV-1, in the assay with TK-10, in the assay on RXF 393 and in the assay on MCF7 was > 100 µM (inactive) each time. The GI50 in the assay with SK-MEL-2, in the assay on M14, in the assay with SF-295, with KM12 and in the assay with 786-0 was > 100 µM (inactive) each time.
Turning to `CC(C)(CO)N1CCN(C(S)=Nc2ccccc2)CC1`, the GI50 with BT-549, in the assay with HT-29, in the assay on SNB-19, in the assay with COLO 205, in the assay with Malme-3M and with MDA-MB-231 was > 100 µM (inactive) throughout. Moreover, the GI50 in the assay with NCI-H460 was > 100 µM (inactive); with K562, 64.3 µM (inactive); with IGROV-1 it was > 100 µM (inactive); in the assay on SNB-75, > 100 µM (inactive); in the assay on TK-10, > 100 µM (inactive); in the assay with RXF 393 it was > 100 µM (inactive). The GI50 with MCF7, in the assay with SK-MEL-2, in the assay with M14, with SF-295, in the assay on KM12 and in the assay on 786-0 was > 100 µM (inactive) throughout.
On to `CCOC(=O)c1c(SC(=O)/C=C/c2ccccc2)n(-c2ccccc2)c(=S)n(-c2ccccc2)c1=O`, for which the GI50 in the assay with HT-29, in the assay on SNB-19, with COLO 205, in the assay with Malme-3M, with HCC 2998 and in the assay on MDA-MB-231 was > 100 µM (inactive) in each case. The GI50 with NCI-H460, in the assay on K562, in the assay with IGROV-1, in the assay on SNB-75, with TK-10 and in the assay on RXF 393 was > 100 µM (inactive) throughout. The GI50 with MCF7, in the assay with M14, with SF-295, in the assay on KM12 and with 786-0 was > 100 µM (inactive) each time.
With `BrCCCCCOc1ccc(-c2c3ccccc3c(-c3ccc(OCCCCCBr)cc3)c3ccccc23)cc1`, the GI50 in the assay with HT-29, with HL-60, with SNB-19, with COLO 205, in the assay with HCC 2998 and in the assay with MDA-MB-231 was > 100 µM (inactive) each time. Also, the GI50 was > 100 µM (inactive) in the assay on NCI-H460; > 100 µM (inactive) in the assay on K562; > 100 µM (inactive) with IGROV-1; 38.5 µM (inactive) with SNB-75; > 100 µM (inactive) with TK-10; > 100 µM (inactive) in the assay with RXF 393. For the same compound, the GI50 in the assay with MCF7, with SK-MEL-2, in the assay on M14, with SF-295, in the assay with KM12 and in the assay with 786-0 was > 100 µM (inactive) in each case.
On to `N#Cc1c(O)c2ccccc2[nH]c1=O`, for which the GI50 in the assay with HT-29, in the assay with HL-60, in the assay on SNB-19, in the assay with COLO 205, in the assay on Malme-3M and in the assay with HCC 2998 was > 100 µM (inactive) in each case. Also, the GI50 in the assay on MDA-MB-231, in the assay on K562, in the assay on IGROV-1, in the assay on SNB-75, with TK-10 and in the assay with RXF 393 was > 100 µM (inactive) in each case. For the same compound, the GI50 in the assay with MCF7, in the assay with SK-MEL-2, with M14, with SF-295, in the assay on KM12 and in the assay on 786-0 was > 100 µM (inactive) in each case.
In the case of `COc1ccc(/N=N/c2c(O)ccc3ccccc23)cc1`, the GI50 was 27.4 µM (inactive) in the assay with BT-549; 17 µM (inactive) in the assay on HT-29; > 100 µM (inactive) with HL-60; > 100 µM (inactive) with COLO 205; 14.1 µM (inactive) in the assay with Malme-3M; 24.5 µM (inactive) in the assay with MDA-MB-231. The GI50 in the assay on IGROV-1 was 5.47 µM (inactive); in the assay on SNB-75, 16.4 µM (inactive); in the assay with TK-10 it was 17.1 µM (inactive); in the assay on RXF 393, 41.2 µM (inactive); in the assay on SK-MEL-2 it was 35.6 µM (inactive); with M14, 26.1 µM (inactive). The GI50 in the assay on SF-295 is 12.9 µM (inactive); in the assay on KM12, 12.1 µM (inactive); in the assay with 786-0, 61.8 µM (inactive).
For `COC(=O)C1(C(=O)OC)CC(=O)c2c(OC(=O)c3cccc(OC)c3C#N)ccc(OC(=O)c3cccc(OC)c3C#N)c2C1`, the GI50 with HT-29, in the assay with HL-60, in the assay with SNB-19, in the assay with COLO 205, in the assay with Malme-3M and in the assay on HCC 2998 was > 100 µM (inactive) each time. For the same compound, the GI50 in the assay on MDA-MB-231, with NCI-H460, with K562, in the assay on IGROV-1, in the assay with SNB-75 and in the assay on TK-10 was > 100 µM (inactive) throughout. For the same compound, the GI50 in the assay with RXF 393, with MCF7, in the assay with M14, in the assay on SF-295, with KM12 and in the assay with 786-0 was > 100 µM (inactive) throughout.
For the compound `C/C(=N\Nc1ccc([N+](=O)[O-])cc1[N+](=O)[O-])c1ccc2ccccc2n1`, the GI50 in the assay on BT-549 is 53.6 µM (inactive); in the assay on HT-29 it was 74.6 µM (inactive); with SNB-19 it was 20 µM (inactive); in the assay on COLO 205, > 100 µM (inactive); with Malme-3M, > 100 µM (inactive); with MDA-MB-231, 49.3 µM (inactive). Moreover, the GI50 is 33 µM (inactive) in the assay on NCI-H460; > 100 µM (inactive) in the assay on K562; 28.1 µM (inactive) with IGROV-1; 81.1 µM (inactive) with SNB-75; 39.6 µM (inactive) with TK-10; > 100 µM (inactive) in the assay with RXF 393. The GI50 was 89.9 µM (inactive) in the assay on MCF7; > 100 µM (inactive) with SK-MEL-2; > 100 µM (inactive) in the assay on M14; 52.6 µM (inactive) with SF-295; > 100 µM (inactive) in the assay on KM12; 78.3 µM (inactive) with 786-0.
Consider `CC(C)(C)NCc1cc(Nc2ccnc3cc(Cl)ccc23)cc(-c2ccc(Cl)cc2)c1O`, for which the GI50 is 1.87 µM (inactive) with HT-29; 1.97 µM (inactive) with HL-60; 4.44 µM (inactive) in the assay on SNB-19; 1.81 µM (inactive) in the assay with COLO 205; 1.84 µM (inactive) in the assay on Malme-3M; 2.21 µM (inactive) with HCC 2998. Further, the GI50 was 3 µM (inactive) in the assay with MDA-MB-231; 2.03 µM (inactive) in the assay on NCI-H460; 1.04 µM (active) with K562; 2.02 µM (inactive) in the assay with IGROV-1; 2.02 µM (inactive) in the assay with SNB-75; 2.43 µM (inactive) in the assay with TK-10. Moreover, the GI50 with RXF 393 is 1.79 µM (inactive); in the assay with MCF7, 1.6 µM (inactive); with SK-MEL-2 it was 2.24 µM (inactive); in the assay with M14 it was 2.18 µM (inactive); in the assay with SF-295, 2.5 µM (inactive); in the assay with KM12 it was 3.5 µM (inactive). For the same compound, the GI50 with 786-0 was 1.87 µM (inactive).
For `CCOC(=O)/C(C(=S)Nc1ccccc1)=C(/N)N1CCCC1`, the GI50 with HT-29 was > 100 µM (inactive); in the assay with HL-60, 49.9 µM (inactive); with SNB-19 it was 50.2 µM (inactive); in the assay with COLO 205, > 100 µM (inactive); in the assay on Malme-3M it was > 100 µM (inactive); with HCC 2998 it was > 100 µM (inactive). The GI50 in the assay on MDA-MB-231 was 29.7 µM (inactive); in the assay with NCI-H460 it was 62.2 µM (inactive); in the assay with K562, 37 µM (inactive); in the assay with IGROV-1, > 100 µM (inactive); in the assay on TK-10 it was > 100 µM (inactive); in the assay with RXF 393, 63.1 µM (inactive). The GI50 in the assay on MCF7 was 54.1 µM (inactive); with SK-MEL-2, > 100 µM (inactive); in the assay on M14, 72.6 µM (inactive); with SF-295 it was > 100 µM (inactive); with KM12 it was 61.1 µM (inactive); with 786-0, > 100 µM (inactive).
Consider `O=[N+]([O-])c1cccc([N+](=O)[O-])c1Cl`, for which the GI50 was 19.9 µM (inactive) in the assay with HT-29; 2.82 µM (inactive) with HL-60; 13.1 µM (inactive) in the assay on SNB-19; 20.6 µM (inactive) in the assay on COLO 205; 17.4 µM (inactive) with Malme-3M; 1.47 µM (inactive) in the assay on HCC 2998. The GI50 with MDA-MB-231 is 21.2 µM (inactive); in the assay with NCI-H460 it was 23.3 µM (inactive); with K562, 5.71 µM (inactive); with IGROV-1 it was 15.9 µM (inactive); with SNB-75 it was 30.3 µM (inactive); in the assay with TK-10 it was 21.9 µM (inactive). Besides, the GI50 in the assay with RXF 393 was 17.7 µM (inactive); in the assay with MCF7 it was 4.24 µM (inactive); with SK-MEL-2, 21.8 µM (inactive); in the assay on M14 it was 10.2 µM (inactive); in the assay on SF-295, 16.1 µM (inactive); with KM12 it was 11.1 µM (inactive). Besides, the GI50 in the assay with 786-0 is 26.4 µM (inactive).
